These are literature values, as cited in publication PMC9022229, “Induction of Paraptosis by Cyclometalated Iridium Complex-Peptide Hybrids and CGP37157 via a Mitochondrial Ca^2+ Overload Triggered by Membrane Fusion between Mitochondria and the Endoplasmic Reticulum” (Biochemistry, 2022).

In data set [1] the test system is IMR90 cells. The arrangement: method as in PMID 25875312, PMID 28032992, doi:10.1002/ejic.201700846, PMID 30154833, PMID 30177492. Particulars: Chart 1, normal cell line, previously reported; read-out: EC50 against IMR90 cells; cited from earlier work.
Data set [2] relates to Jurkat cells. The arrangement: method as in PMID 25875312, PMID 28032992, doi:10.1002/ejic.201700846, PMID 30154833, PMID 30177492. The note with it: Chart 1, previously reported; read-out: EC50 against Jurkat cells; cited from earlier work.

Residues, ends and D or L forms follow the SMILES beside them. *: point of attachment. X1 = O=C(COc1ccc(-c2ccccn2)cc1)NCCCCCCCCN*

A word on the EC50: it is the concentration giving half of the maximal effect. As to `NCCCC[C@H](NC(=O)[C@H](CCCCN)NC(=O)[C@@H](N)CCCCN)C(=O)NCC(=O)NCC(=O)NCCCCCCCCNC(=O)COc1ccc(-c2ccccn2)cc1` [compound 4] (H-KKKGG-X1), the concentration for a half-maximal effect (EC50) in data set [1] was more than 25000 nM; in data set [2] it was 1500 nM.
